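Protocol summary: plate cells (96-well), add compound at 5 concentrations, incubate 48 h, interpolate endpoints linearly. GI50: concentration for 50% inhibition of growth. TGI is the concentration that stops growth completely.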
Legend:
Assay in all cases: NCI tumour cell line growth inhibition, 48 h
UACC-257 melanoma = tested on: UACC-257 melanoma
A498 renal = tested on: A498 renal
CAKI-1 renal = tested on: CAKI-1 renal
COLO 205 colon = tested on: COLO 205 colon
DU-145 prostate = tested on: DU-145 prostate
EKVX NSCLC = tested on: EKVX NSCLC
HCC-2998 colon = tested on: HCC-2998 colon
HS 578T breast = tested on: HS 578T breast
HT29 colon = tested on: HT29 colon
IGROV1 ovarian = tested on: IGROV1 ovarian
K-562 leukemia = tested on: K-562 leukemia
KM12 colon = tested on: KM12 colon
MALME-3M melanoma = tested on: MALME-3M melanoma
MDA-MB-435 = tested on: MDA-MB-435
NCI-H226 lung = tested on: NCI-H226 lung
NCI-H522 lung = tested on: NCI-H522 lung
NCI/ADR-RES ovarian = tested on: NCI/ADR-RES ovarian
OVCAR-5 ovarian = tested on: OVCAR-5 ovarian
RXF 393 renal = tested on: RXF 393 renal
SF-295 CNS = tested on: SF-295 CNS
SF-539 CNS = tested on: SF-539 CNS
SK-MEL-2 melanoma = tested on: SK-MEL-2 melanoma
SK-MEL-28 melanoma = tested on: SK-MEL-28 melanoma
SK-MEL-5 melanoma = tested on: SK-MEL-5 melanoma
SK-OV-3 ovarian = tested on: SK-OV-3 ovarian
TK-10 renal = tested on: TK-10 renal
UO-31 renal = tested on: UO-31 renal
A549 NSCLC = tested on: A549 NSCLC
ACHN renal = tested on: ACHN renal
CCRF-CEM leukemia = tested on: CCRF-CEM leukemia
HCT-116 colon = tested on: HCT-116 colon
HCT-15 colon = tested on: HCT-15 colon
HL-60(TB) leukemia = tested on: HL-60(TB) leukemia
HOP-62 NSCLC = tested on: HOP-62 NSCLC
LOX IMVI melanoma = tested on: LOX IMVI melanoma
M14 melanoma = tested on: M14 melanoma
MOLT-4 leukemia = tested on: MOLT-4 leukemia
NCI-H23 lung = tested on: NCI-H23 lung
OVCAR-3 ovarian = tested on: OVCAR-3 ovarian
OVCAR-8 ovarian = tested on: OVCAR-8 ovarian
PC-3 prostate = tested on: PC-3 prostate
SF-268 CNS = tested on: SF-268 CNS
SN12C renal = tested on: SN12C renal
SNB-19 CNS = tested on: SNB-19 CNS
SNB-75 CNS = tested on: SNB-75 CNS
T-47D breast = tested on: T-47D breast
U251 CNS = tested on: U251 CNS
UACC-62 melanoma = tested on: UACC-62 melanoma

Clc1ccc2c(N3CCC(CCC4CCN(c5ncnc6cc(Cl)ccc56)CC4)CC3)ncnc2c1
GI50 (UACC-257 melanoma): 61 µM

COc1cc(Cn2c3c(c4c(C(=O)NCCN(C)C)c(O)ccc42)C(=O)c2ccccc2C3=O)cc(OC)c1
TGI (A498 renal): 3.45 µM
TGI (CAKI-1 renal): 3.26 µM
TGI (COLO 205 colon): 3.34 µM
TGI (DU-145 prostate): 3.2 µM
TGI (EKVX NSCLC): 3.32 µM
TGI (HCC-2998 colon): 2.35 µM
TGI (HS 578T breast): 4.55 µM
TGI (HT29 colon): 3.45 µM
TGI (IGROV1 ovarian): 3.22 µM
TGI (K-562 leukemia): > 100 µM
TGI (KM12 colon): 3.2 µM
TGI (MALME-3M melanoma): 3.05 µM
TGI (MDA-MB-435): 3.4 µM
TGI (NCI-H226 lung): 48.3 µM
TGI (NCI-H522 lung): 3.21 µM
TGI (NCI/ADR-RES ovarian): 5.21 µM
TGI (OVCAR-5 ovarian): 3.2 µM
TGI (RXF 393 renal): 5.02 µM
TGI (SF-295 CNS): 3.45 µM
TGI (SF-539 CNS): 3.4 µM
TGI (SK-MEL-2 melanoma): 3.36 µM
TGI (SK-MEL-28 melanoma): 3.43 µM
TGI (SK-MEL-5 melanoma): 3.27 µM
TGI (SK-OV-3 ovarian): 3.88 µM
TGI (TK-10 renal): 3.14 µM
TGI (UACC-257 melanoma): 3.97 µM
TGI (UO-31 renal): 3.23 µM

Cc1cccc(C(O)c2ccncc2)c1O (centres undefined)
TGI (A549 NSCLC): > 100 µM
TGI (ACHN renal): > 100 µM
TGI (CCRF-CEM leukemia): > 100 µM
TGI (DU-145 prostate): > 100 µM
TGI (EKVX NSCLC): > 100 µM
TGI (HCC-2998 colon): > 100 µM
TGI (HCT-116 colon): > 100 µM
TGI (HCT-15 colon): > 100 µM
TGI (HL-60(TB) leukemia): > 100 µM
TGI (HOP-62 NSCLC): > 100 µM
TGI (HS 578T breast): > 100 µM
TGI (K-562 leukemia): > 100 µM
TGI (KM12 colon): > 100 µM
TGI (LOX IMVI melanoma): > 100 µM
TGI (M14 melanoma): > 100 µM
TGI (MOLT-4 leukemia): > 100 µM
TGI (NCI-H226 lung): > 100 µM
TGI (NCI-H23 lung): > 100 µM
TGI (NCI-H522 lung): > 100 µM
TGI (NCI/ADR-RES ovarian): > 100 µM
TGI (OVCAR-3 ovarian): > 100 µM
TGI (OVCAR-8 ovarian): > 100 µM
TGI (PC-3 prostate): > 100 µM
TGI (RXF 393 renal): > 100 µM
TGI (SF-268 CNS): > 100 µM
TGI (SF-295 CNS): > 100 µM
TGI (SF-539 CNS): > 100 µM
TGI (SK-MEL-5 melanoma): > 100 µM
TGI (SN12C renal): > 100 µM
TGI (SNB-19 CNS): > 100 µM
TGI (SNB-75 CNS): > 100 µM
TGI (T-47D breast): > 100 µM
TGI (U251 CNS): > 100 µM
TGI (UACC-257 melanoma): > 100 µM
TGI (UACC-62 melanoma): > 100 µM
TGI (UO-31 renal): > 100 µM
